PMC3499488, “A Potential Peptide Therapeutic Derived from the Juxtamembrane Domain of the Epidermal Growth Factor Receptor” (PLoS ONE, 2012)
pEC50: −log10 of the molar value. Read-outs that look alike come from different tables or passages of the source. Where a SMILES comes first, the peptide text is derived from it.

Assays:
MDA-MB-231 cells [1] = assay: Cell viability assay (CellTiter-Glo); type: cell-based, human
From the text: Assays are run in triplicate.

MDA-MB-231 cells [2] = assay: Cellular entry of FAM-labeled peptides, live-cell fluorescent confocal microscopy; type: cell-based, human; settings: N-terminally FAM-labeled peptide, monitored up to 90 minutes and/or overnight incubation, confocal fluorescence
Description: (§1) MDA-MB-231 cells (1×10^5 cells per plate) were plated on 35 mm glass-bottom plates (MatTek Corporation, Ashland, MA), allowed to adhere overnight, then serum starved overnight and analyzed the following day in HBSS (Hank’s balanced salt solution). For real-time uptake of the FAM-labeled peptides, after recording background images, the FAM-labeled peptides were added and cells were imaged every two minutes over approximately 30 minutes. After 30 minutes, images were taken less frequently. Images from representative timepoints are shown. For overnight treatment, the cells were treated in serum-starved media, exchanged into HBSS the following day and imaged.

SK-N-MC cells = assay: Cellular entry of FAM-labeled peptide, fluorescent confocal microscopy; type: cell-based, human; settings: FAM-labeled peptide 1.5 µM, serum starved cells, confocal fluorescence
Description: as §1
(§2) FAM-TE-64562 enters in SK-N-MC cells without any effect of EGF pretreatment. Confocal images of overnight serum starved MDA-MB-231 cells before treatment (0 min) and treated for 90 minutes (A) with 5.0 µM […], (B) with 1.25 µM FAM-Tat or (C) with 2.5 µM FAM-Tat for 60 minutes. (D) SK-N-MC were serum starved overnight and treated with FAM-TE-64562 (1.5 µM) for 16 minutes. (E) NR6 cells MC were serum starved overnight and treated with FAM-TE-64562 (5 µM) for 20 minutes. All scale bars are 20 µm. (TIF) Click here for additional data file.

NR6 cells = assay: as above; type: cell-based; settings: FAM-labeled peptide 5 µM, serum starved cells, confocal fluorescence
Description: as §1, §2

[3] = serum starved overnight (0.1% BSA, no FBS), 24 h treatment, CellTiter-Glo, mean ± S.D. of at least three independent experiments, read-out: EC50± S.D.

Row | pEC50 (MDA-MB-231 cells [1]; [3]) | SMILES | fluorescence within the interior of the cell (MDA-MB-231 cells [2]) | other results
1 | – | CC[C@H](C)[C@H](NC(=O)[C@H](Cc1c[nH]cn1)NC(=O)[C@H](CCCNC(=N)N)NC(=O)[C@H](CCCNC(=N)N)NC(=O)[C@@H](N)CCCNC(=N)N)C(=O)N[C@H](C(=O)N[C@@H](CCCNC(=N)N)C(=O)N[C@@H](CCCCN)C(=O)N[C@@H](CCCNC(=N)N)C(=O)N[C@H](C(=O)N[C@@H](CC(C)C)C(=O)N[C@@H](CCCNC(=N)N)C(=O)N[C@@H](CCCNC(=N)N)C(=O)N[C@@H](CC(C)C)C(=O)N[C@@H](CC(C)C)C(=O)N[C@@H](CCC(N)=O)C(=O)N[C@@H](CCC(=O)O)C(=O)N[C@@H](CCCNC(=N)N)C(=O)O)[C@@H](C)O)C(C)C [E-64562] (H-RRRHIVRKRTLRRLLQER-OH) | – | pEC50 (MDA-MB-231 cells [1]; 24 h): < 4.00
2 | – | N=C(N)NCCC[C@H](NC(=O)c1ccc2c(c1)C(=O)OC21c2ccc(O)cc2Oc2cc(O)ccc21)C(=O)N[C@@H](CCCCN)C(=O)N[C@@H](CCCCN)C(=O)N[C@@H](CCCNC(=N)N)C(=O)N[C@@H](CCCNC(=N)N)C(=O)N[C@@H](CCC(N)=O)C(=O)N[C@@H](CCCNC(=N)N)C(=O)N[C@@H](CCCNC(=N)N)C(=O)N[C@@H](CCCNC(=N)N)C(=O)NCC(=O)O [FAM-conjugated Tat, reference compound] (HELM PEPTIDE1{[O=C1OC2(c3ccc(O)cc3Oc3cc(O)ccc32)c2ccc(C(=O)[*:2])cc21].R.K.K.R.R.Q.R.R.R.G}$$$$V2.0) | did not display any fluorescence within the interior of the cell | –
3 | – | CC[C@H](C)[C@H](NC(=O)[C@H](Cc1c[nH]cn1)NC(=O)[C@H](CCCNC(=N)N)NC(=O)[C@H](CCCNC(=N)N)NC(=O)[C@H](CCCNC(=N)N)NC(=O)c1ccc2c(c1)C(=O)OC21c2ccc(O)cc2Oc2cc(O)ccc21)C(=O)N[C@H](C(=O)N[C@@H](CCCNC(=N)N)C(=O)N[C@@H](CCCCN)C(=O)N[C@@H](CCCNC(=N)N)C(=O)N[C@H](C(=O)N[C@@H](CC(C)C)C(=O)N[C@@H](CCCNC(=N)N)C(=O)N[C@@H](CCCNC(=N)N)C(=O)N[C@@H](CC(C)C)C(=O)N[C@@H](CC(C)C)C(=O)N[C@@H](CCC(N)=O)C(=O)N[C@@H](CCC(=O)O)C(=O)N[C@@H](CCCNC(=N)N)C(=O)O)[C@@H](C)O)C(C)C [FAM-conjugated E-64562] (HELM PEPTIDE1{[O=C1OC2(c3ccc(O)cc3Oc3cc(O)ccc32)c2ccc(C(=O)[*:2])cc21].R.R.R.H.I.V.R.K.R.T.L.R.R.L.L.Q.E.R}$$$$V2.0) | did not display any fluorescence within the interior of the cell | –
4 | – | CC[C@H](C)[C@H](NC(=O)[C@H](CCCNC(=N)N)NC(=O)[C@H](CC(C)C)NC(=O)[C@H](CC(C)C)NC(=O)[C@H](C)NC(=O)[C@H](CCC(N)=O)NC(=O)[C@H](CC(N)=O)NC(=O)[C@@H]1CCCN1C(=O)[C@H](C)NC(=O)[C@H](CCC(=O)O)NC(=O)CNC(=O)[C@H](CO)NC(=O)[C@@H]1CCCN1C(=O)[C@@H](NC(=O)[C@H](CC(C)C)NC(=O)[C@@H]1CCCN1C(=O)[C@H](CCC(=O)O)NC(=O)[C@@H](NC(=O)CNC(=O)[C@H](CCCNC(=N)N)NC(=O)[C@H](CCCNC(=N)N)NC(=O)[C@H](CCCNC(=N)N)NC(=O)[C@H](CCC(N)=O)NC(=O)[C@H](CCCNC(=N)N)NC(=O)[C@H](CCCNC(=N)N)NC(=O)[C@H](CCCCN)NC(=O)[C@H](CCCCN)NC(=O)[C@H](CCCNC(=N)N)NC(=O)c1ccc2c(c1)C(=O)OC21c2ccc(O)cc2Oc2cc(O)ccc21)C(C)C)[C@@H](C)O)C(=O)O [FAM-labeled TE-66482] (HELM PEPTIDE1{[O=C1OC2(c3ccc(O)cc3Oc3cc(O)ccc32)c2ccc(C(=O)[*:2])cc21].R.K.K.R.R.Q.R.R.R.G.V.E.P.L.T.P.S.G.E.A.P.N.Q.A.L.L.R.I}$$$$V2.0) | did not display any fluorescence within the interior of the cell | –
5 | < 4.00 | CC[C@H](C)[C@H](NC(=O)[C@H](CCCNC(=N)N)NC(=O)[C@H](CC(C)C)NC(=O)[C@H](CC(C)C)NC(=O)[C@H](C)NC(=O)[C@H](CCC(N)=O)NC(=O)[C@H](CC(N)=O)NC(=O)[C@@H]1CCCN1C(=O)[C@H](C)NC(=O)[C@H](CCC(=O)O)NC(=O)CNC(=O)[C@H](CO)NC(=O)[C@@H]1CCCN1C(=O)[C@@H](NC(=O)[C@H](CC(C)C)NC(=O)[C@@H]1CCCN1C(=O)[C@H](CCC(=O)O)NC(=O)[C@@H](NC(=O)CNC(=O)[C@H](CCCNC(=N)N)NC(=O)[C@H](CCCNC(=N)N)NC(=O)[C@H](CCCNC(=N)N)NC(=O)[C@H](CCC(N)=O)NC(=O)[C@H](CCCNC(=N)N)NC(=O)[C@H](CCCNC(=N)N)NC(=O)[C@H](CCCCN)NC(=O)[C@H](CCCCN)NC(=O)[C@@H](N)CCCNC(=N)N)C(C)C)[C@@H](C)O)C(=O)O [TE-66482] (H-RKKRRQRRRGVEPLTPSGEAPNQALLRI-OH) | – | –
6 | < 4.00 | CC(C)C[C@H](NC(=O)[C@H](CC(C)C)NC(=O)[C@H](CCCNC(=N)N)NC(=O)[C@H](CCCNC(=N)N)NC(=O)[C@H](C)NC(=O)[C@H](C)NC(=O)[C@H](CCCNC(=N)N)NC(=O)[C@H](CCCCN)NC(=O)[C@H](CCCNC(=N)N)NC(=O)[C@H](C)NC(=O)[C@H](C)NC(=O)[C@H](Cc1c[nH]cn1)NC(=O)[C@H](CCCNC(=N)N)NC(=O)[C@H](CCCNC(=N)N)NC(=O)[C@H](CCCNC(=N)N)NC(=O)CNC(=O)[C@H](CCCNC(=N)N)NC(=O)[C@H](CCCNC(=N)N)NC(=O)[C@H](CCCNC(=N)N)NC(=O)[C@H](CCC(N)=O)NC(=O)[C@H](CCCNC(=N)N)NC(=O)[C@H](CCCNC(=N)N)NC(=O)[C@H](CCCCN)NC(=O)[C@H](CCCCN)NC(=O)[C@@H](N)CCCNC(=N)N)C(=O)N[C@@H](C)C(=O)N[C@@H](C)C(=O)N[C@@H](CCCNC(=N)N)C(=O)O [T-poly-Ala] (H-RKKRRQRRRGRRRHAARKRAARRLLAAR-OH) | – | –
7 | < 4.00 | CC[C@H](C)[C@H](NC(=O)[C@H](CCCNC(=N)N)NC(=O)[C@H](CC(C)C)NC(=O)[C@H](CCC(=O)O)NC(=O)[C@H](CCC(=O)O)NC(=O)[C@H](CC(C)C)NC(=O)[C@H](C)NC(=O)[C@H](CCCNC(=N)N)NC(=O)[C@H](CCC(=O)O)NC(=O)[C@H](CCC(=O)O)NC(=O)[C@@H](NC(=O)[C@H](CCCNC(=N)N)NC(=O)[C@H](C)NC(=O)[C@H](CCCNC(=N)N)NC(=O)[C@H](CCC(=O)O)NC(=O)[C@H](CCC(=O)O)NC(=O)CNC(=O)[C@H](CCCNC(=N)N)NC(=O)[C@H](CCCNC(=N)N)NC(=O)[C@H](CCCNC(=N)N)NC(=O)[C@H](CCC(N)=O)NC(=O)[C@H](CCCNC(=N)N)NC(=O)[C@H](CCCNC(=N)N)NC(=O)[C@H](CCCCN)NC(=O)[C@H](CCCCN)NC(=O)[C@@H](N)CCCNC(=N)N)C(C)C)C(=O)N[C@@H](CCC(=O)O)C(=O)N[C@@H](CCC(=O)O)C(=O)O [T-control] (H-RKKRRQRRRGEERARVEERALEELRIEE-OH) | – | –
8 | – | CC[C@H](C)[C@H](NC(=O)[C@H](Cc1c[nH]cn1)NC(=O)[C@H](CCCNC(=N)N)NC(=O)[C@H](CCCNC(=N)N)NC(=O)[C@H](CCCNC(=N)N)NC(=O)CNC(=O)[C@H](CCCNC(=N)N)NC(=O)[C@H](CCCNC(=N)N)NC(=O)[C@H](CCCNC(=N)N)NC(=O)[C@H](CCC(N)=O)NC(=O)[C@H](CCCNC(=N)N)NC(=O)[C@H](CCCNC(=N)N)NC(=O)[C@H](CCCCN)NC(=O)[C@H](CCCCN)NC(=O)[C@H](CCCNC(=N)N)NC(=O)c1ccc2c(c1)C(=O)OC21c2ccc(O)cc2Oc2cc(O)ccc21)C(=O)N[C@H](C(=O)N[C@@H](CCCNC(=N)N)C(=O)N[C@@H](CCCCN)C(=O)N[C@@H](CCCNC(=N)N)C(=O)N[C@H](C(=O)N[C@@H](CC(C)C)C(=O)N[C@@H](CCCNC(=N)N)C(=O)N[C@@H](CCCNC(=N)N)C(=O)N[C@@H](CC(C)C)C(=O)N[C@@H](CC(C)C)C(=O)N[C@@H](CCC(N)=O)C(=O)N[C@@H](CCC(=O)O)C(=O)N[C@@H](CCCNC(=N)N)C(=O)O)[C@@H](C)O)C(C)C [FAM-conjugated TE-64562] (HELM PEPTIDE1{[O=C1OC2(c3ccc(O)cc3Oc3cc(O)ccc32)c2ccc(C(=O)[*:2])cc21].R.K.K.R.R.Q.R.R.R.G.R.R.R.H.I.V.R.K.R.T.L.R.R.L.L.Q.E.R}$$$$V2.0) | – | time until peptide entered cells (SK-N-MC cells): ≤ 15 min; time until peptide entered cells (NR6 cells): ≤ 15 min
9 | < 4.00 | N=C(N)NCCC[C@H](NC(=O)[C@H](CCCNC(=N)N)NC(=O)[C@H](CCCNC(=N)N)NC(=O)[C@H](CCC(N)=O)NC(=O)[C@H](CCCNC(=N)N)NC(=O)[C@H](CCCNC(=N)N)NC(=O)[C@H](CCCCN)NC(=O)[C@H](CCCCN)NC(=O)[C@@H](N)CCCNC(=N)N)C(=O)NCC(=O)O [Tat, reference compound] (H-RKKRRQRRRG-OH) | – | –
